One block for each molecule: values may come before it. Square brackets hold non-standard residues; d marks the D form. Ends that are not written are not given here. Peptide text beside a SMILES is read from it. Dab = NCC[C@H](N)C(=O)O; Aib = CC(C)(N)C(=O)O
What was measured:
[1] = Glucagon solubility assay; type: physicochemical
GLP-1 Receptor = GLP-1 Receptor (Homo sapiens, UniProt P43220); assay: Functional assay-cAMP synthesis (luciferase reporter, HEK293), GLP-1 receptor
Glucagon Receptor = Glucagon Receptor (Homo sapiens, UniProt P47871); assay: Functional assay-cAMP synthesis (luciferase reporter, HEK293), glucagon receptor; conditions: for % activity*: glucagon receptor
Glucagon Receptor, sequence (P47871 26-477): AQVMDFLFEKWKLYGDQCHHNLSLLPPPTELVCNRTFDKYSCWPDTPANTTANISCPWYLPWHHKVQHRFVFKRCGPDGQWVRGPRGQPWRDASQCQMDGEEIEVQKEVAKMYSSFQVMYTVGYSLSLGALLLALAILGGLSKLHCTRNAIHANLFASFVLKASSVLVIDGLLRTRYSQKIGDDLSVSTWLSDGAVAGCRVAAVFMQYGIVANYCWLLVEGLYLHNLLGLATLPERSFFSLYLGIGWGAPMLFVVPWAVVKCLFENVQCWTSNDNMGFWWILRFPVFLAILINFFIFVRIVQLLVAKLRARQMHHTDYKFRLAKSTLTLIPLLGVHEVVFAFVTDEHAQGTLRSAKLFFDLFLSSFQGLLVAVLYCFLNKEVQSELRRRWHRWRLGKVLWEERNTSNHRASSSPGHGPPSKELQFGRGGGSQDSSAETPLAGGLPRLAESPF

[2] = EC50 at Glucagon Receptor (nM), Table 7

GLP-1 Receptor, sequence (P43220 24-463, species assumed): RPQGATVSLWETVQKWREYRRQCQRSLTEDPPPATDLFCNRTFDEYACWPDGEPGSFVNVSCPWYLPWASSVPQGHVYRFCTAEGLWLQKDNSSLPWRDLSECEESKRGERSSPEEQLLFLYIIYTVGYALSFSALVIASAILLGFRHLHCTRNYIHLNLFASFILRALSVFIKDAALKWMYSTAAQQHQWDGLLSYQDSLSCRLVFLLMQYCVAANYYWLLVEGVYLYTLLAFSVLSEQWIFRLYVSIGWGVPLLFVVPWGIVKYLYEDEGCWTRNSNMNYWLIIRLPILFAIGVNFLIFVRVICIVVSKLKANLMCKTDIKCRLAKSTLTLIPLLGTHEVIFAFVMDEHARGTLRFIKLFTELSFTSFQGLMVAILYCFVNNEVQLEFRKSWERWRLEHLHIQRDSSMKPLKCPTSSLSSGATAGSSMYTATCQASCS

solubility relative to native glucagon ([1]; pH values of 5.5 and 7.0, FIGS. 3 & 4): superior solubility
Molecule: HSQGTFTSDYSKYLESRRAQDFVQWLMDT [D28, E15]

EC50 (GLP-1 Receptor): 0.041 nM
Molecule: CCCCCCCCCCCCCCCC(=O)NCCCC[C@H](NC(=O)[C@H](CC(=O)O)NC(=O)[C@H](CO)NC(=O)[C@@H](NC(=O)[C@H](Cc1ccccc1)NC(=O)[C@@H](NC(=O)CNC(=O)[C@H](CCC(N)=O)NC(=O)[C@@H](CO)NC(=O)[C@@H](N)Cc1c[nH]cn1)[C@@H](C)O)[C@@H](C)O)C(=O)N[C@@H](CO)C(=O)N[C@@H](CCCCN)C(=O)N[C@@H](Cc1ccc(O)cc1)C(=O)N[C@@H](CC(C)C)C(=O)N[C@@H](CC(=O)O)C(=O)N[C@@H](CCC(=O)O)C(=O)N[C@@H](CCCNC(=N)N)C(=O)N[C@@H](CCCNC(=N)N)C(=O)N[C@@H](C)C(=O)N[C@@H](CCCCN)C(=O)N[C@@H](CC(=O)O)C(=O)N[C@@H](Cc1ccccc1)C(=O)N[C@H](C(=O)N[C@@H](CCC(N)=O)C(=O)N[C@@H](Cc1c[nH]c2ccccc12)C(=O)N[C@@H](CC(C)C)C(=O)N[C@@H](CCSC)C(=O)N[C@@H](CC(N)=O)C(=O)N[C@H](C(N)=O)[C@@H](C)O)C(C)C [Peptide dS2K10(C16)E16K20-Gluc Amide, HXQGTFTSDKSKYLDERRAKDFVQWLMNT-amide]

EC50 (Glucagon Receptor; [2]): 0.48 nM
% activity* (Glucagon Receptor; Table 7): 13%
Molecule: CCCC[C@H](NC(=O)[C@H](CC(C)C)NC(=O)[C@H](Cc1c[nH]c2ccccc12)NC(=O)[C@H](C)NC(=O)[C@@H](NC(=O)[C@H](Cc1ccccc1)NC(=O)[C@H](CCC(=O)O)NC(=O)[C@H](C)NC(=O)[C@H](C)NC(=O)[C@H](CCCNC(=N)N)NC(=O)[C@H](CCCNC(=N)N)NC(=O)[C@@H](NC(=O)[C@H](CC(=O)O)NC(=O)[C@H](CC(C)C)NC(=O)[C@H](Cc1ccc(O)cc1)NC(=O)[C@H](CCCCN)NC(=O)[C@H](CO)NC(=O)[C@H](Cc1ccc(O)cc1)NC(=O)[C@H](CC(=O)O)NC(=O)[C@H](CO)NC(=O)[C@@H](NC(=O)[C@H](Cc1ccccc1)NC(=O)[C@@H](NC(=O)CNC(=O)[C@H](CNC(N)=O)NC(=O)[C@H](CO)NC(=O)[C@@H](N)Cc1c[nH]cn1)[C@@H](C)O)[C@@H](C)O)[C@@H](C)O)C(C)C)C(=O)N[C@@H](CC(=O)O)C(=O)N[C@@H](CCC(=O)O)C(=O)O [SEQ ID NO: 64]

EC50 (Glucagon Receptor; [2]): 0.18 nM
% activity* (Glucagon Receptor; Table 7): 33%
Molecule: CCCC[C@H](NC(=O)[C@H](CC(C)C)NC(=O)[C@H](Cc1c[nH]c2ccccc12)NC(=O)[C@H](C)NC(=O)[C@@H](NC(=O)[C@H](Cc1ccccc1)NC(=O)[C@H](CCC(=O)O)NC(=O)[C@H](C)NC(=O)[C@H](C)NC(=O)[C@H](CCCNC(=N)N)NC(=O)[C@H](CCCNC(=N)N)NC(=O)[C@@H](NC(=O)[C@H](CC(=O)O)NC(=O)[C@H](CC(C)C)NC(=O)[C@H](Cc1ccc(O)cc1)NC(=O)[C@H](CCCCN)NC(=O)[C@H](CO)NC(=O)[C@H](Cc1ccc(O)cc1)NC(=O)[C@H](CC(=O)O)NC(=O)[C@H](CO)NC(=O)[C@@H](NC(=O)[C@H](Cc1ccccc1)NC(=O)[C@@H](NC(=O)CNC(=O)[C@H](CSCNC(C)=O)NC(=O)[C@H](CO)NC(=O)[C@@H](N)Cc1c[nH]cn1)[C@@H](C)O)[C@@H](C)O)[C@@H](C)O)C(C)C)C(=O)N[C@@H](CC(=O)O)C(=O)N[C@@H](CCC(=O)O)C(=O)O [SEQ ID NO: 62]

EC50 (Glucagon Receptor; EC50 at the glucagon receptor, Example 20): 0.08 nM
Molecule: CSCC[C@H](NC(=O)[C@H](CC(C)C)NC(=O)[C@H](Cc1c[nH]c2ccccc12)NC(=O)[C@H](CCC(N)=O)NC(=O)[C@@H](NC(=O)[C@H](Cc1ccccc1)NC(=O)[C@H](CC(=O)O)NC(=O)[C@H](CCC(N)=O)NC(=O)[C@H](C)NC(=O)[C@H](CCCNC(=N)N)NC(=O)[C@H](CCCNC(=N)N)NC(=O)C(C)(C)NC(=O)[C@H](CC(=O)O)NC(=O)[C@H](CC(C)C)NC(=O)[C@H](Cc1ccc(O)cc1)NC(=O)[C@H](CCCCN)NC(=O)[C@H](CO)NC(=O)[C@H](Cc1ccc(O)cc1)NC(=O)[C@H](CC(=O)O)NC(=O)[C@H](CO)NC(=O)[C@@H](NC(=O)[C@H](Cc1ccccc1)NC(=O)[C@@H](NC(=O)CNC(=O)[C@H](CCC(N)=O)NC(=O)[C@H](CO)NC(=O)[C@@H](N)Cc1c[nH]cn1)[C@@H](C)O)[C@@H](C)O)C(C)C)C(=O)N[C@@H](CC(=O)O)C(=O)N[C@@H](CCC(=O)O)C(=O)O [AIB16/D28/E29 Glucagon] (H-HSQGTFTSDYSKYLD[Aib]RRAQDFVQWLMDE-OH; N-terminus and C-terminus assumed)

% activity* (Glucagon Receptor; Table 7): 19%
Molecule: CCCC[C@H](NC(=O)[C@H](CC(C)C)NC(=O)[C@H](Cc1c[nH]c2ccccc12)NC(=O)[C@H](C)NC(=O)[C@@H](NC(=O)[C@H](Cc1ccccc1)NC(=O)[C@H](CCC(=O)O)NC(=O)[C@H](C)NC(=O)[C@H](C)NC(=O)[C@H](CCCNC(=N)N)NC(=O)[C@H](CCCNC(=N)N)NC(=O)[C@@H](NC(=O)[C@H](CC(=O)O)NC(=O)[C@H](CC(C)C)NC(=O)[C@H](Cc1ccc(O)cc1)NC(=O)[C@H](CCCCN)NC(=O)[C@H](CO)NC(=O)[C@H](Cc1ccc(O)cc1)NC(=O)[C@H](CC(=O)O)NC(=O)[C@H](CO)NC(=O)[C@@H](NC(=O)[C@H](Cc1ccccc1)NC(=O)[C@@H](NC(=O)CNC(=O)[C@H](CCNC(C)=O)NC(=O)[C@H](CO)NC(=O)[C@@H](N)Cc1c[nH]cn1)[C@@H](C)O)[C@@H](C)O)[C@@H](C)O)C(C)C)C(=O)N[C@@H](CC(=O)O)C(=O)N[C@@H](CCC(=O)O)C(=O)O [SEQ ID NO: 63]

Second part, the molecule before the results:

Molecule: Glucagon, Cys17PEG5K: Glucagon Cys17(1-29) reacted with methoxy poly(ethyleneglycol) maleimide avg. M.W.5000
Percent Soluble ([1]; pH 7): 94%

Molecule: CCCCCCCCCCCCCC(=O)NCCCC[C@H](NC(=O)[C@H](CC(=O)O)NC(=O)[C@H](CO)NC(=O)[C@@H](NC(=O)[C@H](Cc1ccccc1)NC(=O)[C@@H](NC(=O)CNC(=O)[C@H](CCC(N)=O)NC(=O)[C@@H](CO)NC(=O)[C@@H](N)Cc1c[nH]cn1)[C@@H](C)O)[C@@H](C)O)C(=O)N[C@@H](CO)C(=O)N[C@@H](CCCCN)C(=O)N[C@@H](Cc1ccc(O)cc1)C(=O)N[C@@H](CC(C)C)C(=O)N[C@@H](CC(=O)O)C(=O)N[C@@H](CCC(=O)O)C(=O)N[C@@H](CCCNC(=N)N)C(=O)N[C@@H](CCCNC(=N)N)C(=O)N[C@@H](C)C(=O)N[C@@H](CCCCN)C(=O)N[C@@H](CC(=O)O)C(=O)N[C@@H](Cc1ccccc1)C(=O)N[C@H](C(=O)N[C@@H](CCC(N)=O)C(=O)N[C@@H](Cc1c[nH]c2ccccc12)C(=O)N[C@@H](CC(C)C)C(=O)N[C@@H](CCSC)C(=O)N[C@@H](CC(N)=O)C(=O)N[C@H](C(N)=O)[C@@H](C)O)C(C)C [Peptide dS2K10(C14)E16K20-Gluc Amide, HXQGTFTSDKSKYLDERRAKDFVQWLMNT-amide]
EC50 (GLP-1 Receptor): 0.041 nM

Molecule: CC(=O)NCC[C@H](NC(=O)[C@H](CO)NC(=O)[C@@H](N)Cc1c[nH]cn1)C(=O)NCC(=O)N[C@H](C(=O)N[C@@H](Cc1ccccc1)C(=O)N[C@H](C(=O)N[C@@H](CO)C(=O)N[C@@H](CC(=O)O)C(=O)N[C@@H](Cc1ccc(O)cc1)C(=O)N[C@@H](CO)C(=O)N[C@@H](CCCCN)C(=O)N[C@@H](Cc1ccc(O)cc1)C(=O)N[C@@H](CC(C)C)C(=O)N[C@@H](CC(=O)O)C(=O)NC(C)(C)C(=O)N[C@@H](CCCNC(=N)N)C(=O)N[C@@H](CCCNC(=N)N)C(=O)N[C@@H](C)C(=O)N[C@@H](C)C(=O)N[C@@H](CC(=O)O)C(=O)N[C@@H](Cc1ccccc1)C(=O)N[C@H](C(=O)N[C@@H](C)C(=O)N[C@@H](Cc1c[nH]c2ccccc12)C(=O)N[C@@H](CC(C)C)C(=O)N[C@@H](CC(C)C)C(=O)N[C@@H](CC(=O)O)C(=O)N[C@H](C(=O)NCC(=O)N1CCC[C@H]1C(=O)N[C@@H](CO)C(=O)N[C@@H](CO)C(=O)NCC(=O)N[C@@H](C)C(=O)N1CCC[C@H]1C(=O)N1CCC[C@H]1C(=O)N1CCC[C@H]1C(=O)N[C@@H](CO)C(N)=O)[C@@H](C)O)C(C)C)[C@@H](C)O)[C@@H](C)O [SEQ ID NO: 72] (H-HS[Dab](Ac)GTFTSDYSKYLD[Aib]RRAADFVAWLLDTGPSSGAPPPS-NH2; N-terminus assumed)
% activity* (Glucagon Receptor; Table 8, wildtype glucagon = 100): 113%

Molecule: CCCC[C@H](NC(=O)[C@H](CC(C)C)NC(=O)[C@H](Cc1c[nH]c2ccccc12)NC(=O)[C@H](C)NC(=O)[C@@H](NC(=O)[C@H](Cc1ccccc1)NC(=O)[C@H](CCC(=O)O)NC(=O)[C@H](C)NC(=O)[C@H](C)NC(=O)[C@H](CCCNC(=N)N)NC(=O)[C@H](CCCNC(=N)N)NC(=O)[C@@H](NC(=O)[C@H](CC(=O)O)NC(=O)[C@H](CC(C)C)NC(=O)[C@H](Cc1ccc(O)cc1)NC(=O)[C@H](CCCCN)NC(=O)[C@H](CO)NC(=O)[C@H](Cc1ccc(O)cc1)NC(=O)[C@H](CC(=O)O)NC(=O)[C@H](CO)NC(=O)[C@@H](NC(=O)[C@H](Cc1ccccc1)NC(=O)[C@@H](NC(=O)CNC(=O)[C@H](CCCNC(C)=O)NC(=O)[C@H](CO)NC(=O)[C@@H](N)Cc1c[nH]cn1)[C@@H](C)O)[C@@H](C)O)[C@@H](C)O)C(C)C)C(=O)N[C@@H](CC(=O)O)C(=O)N[C@@H](CCC(=O)O)C(=O)O [SEQ ID NO: 67]
% activity* (Glucagon Receptor; Table 7): 7%

— patent US8450270B2 (Indiana University Research and Technology Corporation, priority 2008, dated 2013)
